Measurements as given in patent US12344583B2, “Solid psilocin salts” (LOBE SCIENCES LTD., priority 2022, dated 2025).
Where “and” joins values, the source holds several entries; their conditions need not be identical. Equal values may be shown once. Entries after “also recorded” stand apart in the source; their conditions may differ.

What was measured:
[1] = Stability studies on psilocin mucate capsule (appearance, HPLC assay and impurities, TM-022-0392); format: physicochemical
Protocol: Additional stability studies were performed on the solid psilocin form psilocin mucate (also known as psilocin mucic acid salt or conjugate or psilocin galactaric acid salt or conjugate) capsule.
Appearance was evaluated by viewing of the sample on a watchglass over a black and white background.
Assay conditions for Test/Method TM-022-0392 assessing stability and impurities were as follows: • Mobile phase: MPA: 945 mL water, 5 mL H3PO4, pH to 5.7 with • NaOH; MPB: Acetonitrile • Diluent: 80:20 Water: MeOH • Standard: 0.4 mg/mL Psilocin Mucic RS in Diluent • Sample: 0.4 mg/mL Psilocin Mucic API in Diluent HPLC Conditions are depicted in Table 3.
Calculations were against a bracketing external standard.
Identity of psilocin mucate was verified by ultraviolet (UV) assessment, wherein the UV spectrum of the main peak in the standard matched the UV spectrum of the main peak in the sample and by retention time wherein the retention time ratio was 0.98-1.02.

[2] = tested on: healthy subjects; assay: Phase one open-label single-dose study of psilocin mucate capsules: MMSE and mood assessment by psychiatrist; details: single oral capsule 4.05 mg psilocin mucate (equivalent to 2 mg psilocin)

## CN(C)CCc1c[nH]c2cccc(O)c12.O=C(O)[C@@H](O)[C@H](O)[C@H](O)[C@@H](O)C(=O)O [psilocin mucate]
[1]; 7 Months
  Total Impurities: <0.05%
[1]; 7 Months, all impurities, area percent
  Impurities TM-22-0392, individual impurities: All <0.05%
[1]; 7 Months, specification 90.0-110.0%
  Assay TM-22-0392 (% Label Claim): 101,7%
[1]; Initial
  Total Impurities: 0.08%
[1]; Initial, impurity at RRT I.12, area percent
  Impurities TM-22-0392, individual impurities: RRT I.12/0.08%
[2]; one statement per subject
  FEELING STATUS: Less anxious, better mood, increase their appetite; also recorded: Feel little beet happier, better energy; also recorded: Feel calm, less thoughts, happier mood; also recorded: Euphoric, better mood, it helps with life stress; also recorded: Euphories, better mood, sleepy, feel time is; also recorded: Sleepy, better thoughts, less worried in general; also recorded: Did not feel change in mood but feeling cold; also recorded: More relaxed, want to drink sweet tea, better; also recorded: Better mood, feels hyper sexual
[2]; one value per subject, below 25 expected for a hallucinogenic substance
  MMSE: 29 (2×) and 30 (3×) and 28 (3×) and 27 (2×)
